Tests used:
Experiment in all cases: relative viability (nuclei count vs DMSO), 5 days (fraction); higher = more cells survive
RAF265 + Alpelisib = compound: Cn1c(Nc2ccc(C(F)(F)F)cc2)nc2cc(Oc3ccnc(-c4ncc(C(F)(F)F)[nH]4)c3)ccc21 [RAF265] + Cc1nc(NC(=O)N2CCC[C@H]2C(N)=O)sc1-c1ccnc(C(C)(C)C(F)(F)F)c1 [Alpelisib] (partner 2 µM)
Outline: (§1)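 Lung cancer cell lines were pin-tool dosed in 1536-well plates on the day after seeding, with either a lone drug or a fixed anchor-drug dose plus five library-drug doses (not always all listed) in √10 steps. Nuclei were counted on 4× images after 5 days. Relative viability is the ratio of treated-well to vehicle-well nuclei counts, with each value a median of duplicate plates.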

RAF265 + Crizotinib = compound: Cn1c(Nc2ccc(C(F)(F)F)cc2)nc2cc(Oc3ccnc(-c4ncc(C(F)(F)F)[nH]4)c3)ccc21 [RAF265] + C[C@@H](Oc1cc(-c2cnn(C3CCNCC3)c2)cnc1N)c1c(Cl)ccc(F)c1Cl [Crizotinib] (partner 1 µM)
Outline: as §1

RAF265 + Foretinib = compound: Cn1c(Nc2ccc(C(F)(F)F)cc2)nc2cc(Oc3ccnc(-c4ncc(C(F)(F)F)[nH]4)c3)ccc21 [RAF265] + COc1cc2c(Oc3ccc(NC(=O)C4(C(=O)Nc5ccc(F)cc5)CC4)cc3F)ccnc2cc1OCCCN1CCOCC1 [Foretinib] (partner 0.25 µM)
Outline: as §1

RAF265 + OSI-027 = compound: Cn1c(Nc2ccc(C(F)(F)F)cc2)nc2cc(Oc3ccnc(-c4ncc(C(F)(F)F)[nH]4)c3)ccc21 [RAF265] + COc1cccc2cc(-c3nc([C@H]4CC[C@H](C(=O)O)CC4)n4ncnc(N)c34)[nH]c12 [OSI-027] (partner 0.5 µM)
Outline: as §1

| Cell Line | relative viability (RAF265 + Alpelisib; first compound 0.01 µM) | relative viability (RAF265 + Alpelisib; first compound 0.03162 µM) | relative viability (RAF265 + Alpelisib; first compound 0.1 µM) | relative viability (RAF265 + Alpelisib; first compound 0.3162 µM) | relative viability (RAF265 + Alpelisib; first compound 1 µM) | relative viability (RAF265 + Crizotinib; first compound 0.01 µM) | relative viability (RAF265 + Crizotinib; first compound 0.03162 µM) | relative viability (RAF265 + Crizotinib; first compound 0.1 µM) | relative viability (RAF265 + Crizotinib; first compound 0.3162 µM) | relative viability (RAF265 + Crizotinib; first compound 1 µM) | relative viability (RAF265 + Foretinib; first compound 0.01 µM) | relative viability (RAF265 + Foretinib; first compound 0.03162 µM) | relative viability (RAF265 + Foretinib; first compound 0.1 µM) | relative viability (RAF265 + Foretinib; first compound 0.3162 µM) | relative viability (RAF265 + Foretinib; first compound 1 µM) | relative viability (RAF265 + OSI-027; first compound 0.01 µM) | relative viability (RAF265 + OSI-027; first compound 0.03162 µM) | relative viability (RAF265 + OSI-027; first compound 0.1 µM) | relative viability (RAF265 + OSI-027; first compound 0.3162 µM) | relative viability (RAF265 + OSI-027; first compound 1 µM) |
| --- | --- | --- | --- | --- | --- | --- | --- | --- | --- | --- | --- | --- | --- | --- | --- | --- | --- | --- | --- | --- |
| RERF-LC-KJ | 0.791 | 0.573 | 0.851 | 0.625 | 0.584 | 0.867 | 0.818 | 0.93 | 0.852 | 0.632 | 0.867 | 0.85 | 0.891 | 0.759 | 0.774 | 0.548 | 0.52 | 0.423 | 0.349 | 0.381 |
| SK-LU-1 | 0.972 | 0.494 | 0.493 | 0.506 | 0.363 | 0.45 | 0.753 | 0.73 | 0.477 | 0.397 | 0.889 | 0.615 | 0.491 | 0.411 | 0.318 | 0.349 | 0.254 | 0.224 | 0.232 | 0.193 |
| SK-MES-1 | 0.942 | 0.807 | 0.337 | 0.242 | 0.183 | 1 | 0.88 | 0.919 | 0.334 | 0.242 | 1.04 | 0.932 | 0.816 | 0.529 | 0.369 | 0.544 | 0.355 | 0.186 | 0.223 | 0.187 |
| SW 1573 | 1 | 0.638 | 0.645 | 0.574 | 0.343 | 0.869 | 0.632 | 0.842 | 0.663 | 0.406 | 1 | 1.01 | 0.887 | 0.792 | 0.732 | 0.697 | 0.521 | 0.418 | 0.347 | 0.249 |
